Measured values: patent publication US12054486B2, “Pyridine derivatives and their use as sodium channel activators” (Xenon Pharmaceuticals Inc., priority 2021, dated 2024)

Key:
[1] = molecular target: sodium channel isoforms of interest stably expressed in Human Embryonic Kidney Cells (voltage-gated sodium channel, particularly NaV1.1) (Homo sapiens, UniProt P35498); assay: automated planar patch clamp assay of sodium channel gating (area under the sodium current trace); type: cell-based; settings: HEK cells, voltage step from −120 mV to 0 mV, increasing concentrations
In short: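 Sodium channel isoforms stably expressed in HEK cells, recorded by automated planar patch clamp with depolarizing steps from −120 mV to 0 mV at increasing compound concentrations. Area under the current trace quantifies gating effect; peak current, inactivation time constant and steady-state inactivation also measured; potency from concentration responses.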

NaV1.2 = NaV1.2 (Homo sapiens, UniProt Q99250); settings: relative to NaV1.1 activation; cited from earlier work
NaV1.1 = NaV1.1 (Homo sapiens, UniProt P35498); settings: NaV1.1-expressing HEK cells; cited from earlier work
NaV1.5 = NaV1.5 (Homo sapiens, UniProt Q14524); settings: relative to NaV1.1 activation; cited from earlier work
NaV1.5, sequence (Q14524 whole entry): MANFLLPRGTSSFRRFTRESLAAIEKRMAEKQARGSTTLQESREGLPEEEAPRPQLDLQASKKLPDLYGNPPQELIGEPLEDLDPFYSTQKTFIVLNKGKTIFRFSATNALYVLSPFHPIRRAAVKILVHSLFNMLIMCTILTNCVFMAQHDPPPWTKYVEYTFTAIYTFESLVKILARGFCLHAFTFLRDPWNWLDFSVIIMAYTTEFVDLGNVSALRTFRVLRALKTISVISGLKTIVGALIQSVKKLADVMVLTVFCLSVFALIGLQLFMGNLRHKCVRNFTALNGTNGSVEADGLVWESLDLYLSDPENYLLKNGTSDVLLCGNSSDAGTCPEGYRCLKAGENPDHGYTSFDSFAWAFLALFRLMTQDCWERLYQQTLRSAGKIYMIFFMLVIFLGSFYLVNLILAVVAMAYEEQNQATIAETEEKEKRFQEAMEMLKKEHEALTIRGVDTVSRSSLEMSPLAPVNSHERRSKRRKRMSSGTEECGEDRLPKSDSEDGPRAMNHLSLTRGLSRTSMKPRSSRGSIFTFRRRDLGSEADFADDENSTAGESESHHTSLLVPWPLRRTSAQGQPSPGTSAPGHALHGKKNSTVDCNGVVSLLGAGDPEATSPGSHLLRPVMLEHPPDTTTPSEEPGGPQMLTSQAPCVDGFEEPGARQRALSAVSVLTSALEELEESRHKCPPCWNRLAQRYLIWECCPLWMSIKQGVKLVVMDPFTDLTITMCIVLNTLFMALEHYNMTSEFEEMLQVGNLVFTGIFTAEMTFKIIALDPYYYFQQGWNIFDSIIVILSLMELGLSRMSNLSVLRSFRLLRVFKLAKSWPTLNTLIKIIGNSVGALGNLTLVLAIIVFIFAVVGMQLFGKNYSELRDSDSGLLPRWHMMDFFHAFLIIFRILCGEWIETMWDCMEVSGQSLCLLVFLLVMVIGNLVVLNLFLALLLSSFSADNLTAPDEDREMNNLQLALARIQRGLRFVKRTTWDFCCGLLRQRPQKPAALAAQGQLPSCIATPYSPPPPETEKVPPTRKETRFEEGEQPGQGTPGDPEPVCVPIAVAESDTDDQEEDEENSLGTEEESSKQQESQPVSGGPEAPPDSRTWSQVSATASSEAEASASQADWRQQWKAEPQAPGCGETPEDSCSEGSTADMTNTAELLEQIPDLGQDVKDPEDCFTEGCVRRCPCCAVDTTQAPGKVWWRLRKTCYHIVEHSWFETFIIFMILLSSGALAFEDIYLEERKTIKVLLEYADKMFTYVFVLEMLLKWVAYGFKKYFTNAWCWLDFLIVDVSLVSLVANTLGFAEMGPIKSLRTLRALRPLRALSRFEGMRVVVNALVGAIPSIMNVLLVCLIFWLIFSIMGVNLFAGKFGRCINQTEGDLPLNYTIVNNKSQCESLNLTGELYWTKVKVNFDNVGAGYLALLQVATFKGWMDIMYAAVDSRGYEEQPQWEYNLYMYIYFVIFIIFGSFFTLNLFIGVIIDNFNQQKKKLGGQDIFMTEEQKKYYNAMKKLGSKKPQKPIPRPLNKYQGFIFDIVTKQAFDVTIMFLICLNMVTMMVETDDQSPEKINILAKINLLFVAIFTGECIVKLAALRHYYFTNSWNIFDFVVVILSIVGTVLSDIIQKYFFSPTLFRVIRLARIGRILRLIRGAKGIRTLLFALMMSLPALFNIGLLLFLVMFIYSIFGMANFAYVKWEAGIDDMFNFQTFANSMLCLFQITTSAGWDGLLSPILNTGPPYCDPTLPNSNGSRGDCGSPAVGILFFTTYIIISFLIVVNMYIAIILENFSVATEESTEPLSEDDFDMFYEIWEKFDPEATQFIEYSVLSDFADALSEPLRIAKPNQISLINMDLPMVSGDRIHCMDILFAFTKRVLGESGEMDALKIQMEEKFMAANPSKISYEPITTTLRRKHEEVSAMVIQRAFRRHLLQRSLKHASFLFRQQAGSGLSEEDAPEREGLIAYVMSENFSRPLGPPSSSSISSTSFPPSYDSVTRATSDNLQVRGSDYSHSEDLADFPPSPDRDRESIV

NaV1.2, sequence (Q99250 whole entry): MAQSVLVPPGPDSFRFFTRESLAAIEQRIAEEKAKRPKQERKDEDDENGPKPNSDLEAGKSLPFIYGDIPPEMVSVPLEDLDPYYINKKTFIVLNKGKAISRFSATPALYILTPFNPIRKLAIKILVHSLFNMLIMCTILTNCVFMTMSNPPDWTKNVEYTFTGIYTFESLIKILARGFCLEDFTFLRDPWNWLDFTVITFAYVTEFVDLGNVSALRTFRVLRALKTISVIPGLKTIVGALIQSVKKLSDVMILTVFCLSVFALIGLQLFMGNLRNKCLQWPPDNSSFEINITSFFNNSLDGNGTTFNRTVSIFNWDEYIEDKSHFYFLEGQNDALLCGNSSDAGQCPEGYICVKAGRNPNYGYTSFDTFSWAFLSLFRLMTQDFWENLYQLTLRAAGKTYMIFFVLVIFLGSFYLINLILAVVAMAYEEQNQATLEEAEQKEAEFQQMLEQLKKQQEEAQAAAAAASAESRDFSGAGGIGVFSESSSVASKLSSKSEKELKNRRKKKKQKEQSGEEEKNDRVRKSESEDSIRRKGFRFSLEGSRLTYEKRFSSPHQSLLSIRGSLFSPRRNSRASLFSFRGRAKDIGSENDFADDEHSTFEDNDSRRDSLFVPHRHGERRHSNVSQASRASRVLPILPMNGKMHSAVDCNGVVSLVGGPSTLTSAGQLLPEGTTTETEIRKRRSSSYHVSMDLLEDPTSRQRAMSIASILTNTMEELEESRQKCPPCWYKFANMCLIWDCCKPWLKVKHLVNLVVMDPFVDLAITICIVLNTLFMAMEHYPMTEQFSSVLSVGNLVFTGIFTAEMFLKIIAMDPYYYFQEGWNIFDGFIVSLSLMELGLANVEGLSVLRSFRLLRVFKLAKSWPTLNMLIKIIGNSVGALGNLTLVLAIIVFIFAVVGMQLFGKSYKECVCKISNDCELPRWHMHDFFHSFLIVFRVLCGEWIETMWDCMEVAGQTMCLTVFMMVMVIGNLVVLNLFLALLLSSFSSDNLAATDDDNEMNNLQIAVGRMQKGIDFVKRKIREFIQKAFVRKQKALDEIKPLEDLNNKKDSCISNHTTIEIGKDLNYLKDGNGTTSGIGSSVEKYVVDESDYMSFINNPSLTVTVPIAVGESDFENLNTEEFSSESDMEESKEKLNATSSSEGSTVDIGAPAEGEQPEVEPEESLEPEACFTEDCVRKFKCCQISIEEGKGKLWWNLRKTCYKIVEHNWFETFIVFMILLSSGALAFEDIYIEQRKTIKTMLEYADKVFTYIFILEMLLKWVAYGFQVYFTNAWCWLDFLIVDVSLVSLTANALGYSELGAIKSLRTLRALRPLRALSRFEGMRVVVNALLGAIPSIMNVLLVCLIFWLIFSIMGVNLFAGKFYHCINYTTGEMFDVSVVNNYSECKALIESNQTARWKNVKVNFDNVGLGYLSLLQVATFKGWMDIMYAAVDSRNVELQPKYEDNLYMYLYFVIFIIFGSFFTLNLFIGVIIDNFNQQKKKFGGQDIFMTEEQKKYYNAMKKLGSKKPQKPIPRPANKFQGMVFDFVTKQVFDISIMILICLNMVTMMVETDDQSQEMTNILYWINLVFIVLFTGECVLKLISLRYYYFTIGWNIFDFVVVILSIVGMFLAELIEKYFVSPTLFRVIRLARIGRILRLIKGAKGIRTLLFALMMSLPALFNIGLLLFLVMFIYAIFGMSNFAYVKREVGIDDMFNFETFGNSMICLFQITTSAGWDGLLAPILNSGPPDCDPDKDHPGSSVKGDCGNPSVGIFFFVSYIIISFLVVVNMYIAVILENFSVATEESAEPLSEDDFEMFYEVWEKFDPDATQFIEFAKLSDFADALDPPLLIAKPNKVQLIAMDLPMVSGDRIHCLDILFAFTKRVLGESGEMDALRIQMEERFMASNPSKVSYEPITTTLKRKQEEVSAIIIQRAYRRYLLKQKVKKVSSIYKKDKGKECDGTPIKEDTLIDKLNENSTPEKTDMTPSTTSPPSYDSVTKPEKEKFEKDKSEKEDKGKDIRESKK

Structure (SMILES)	EC50 [1] [nM]	Empirical Emax [1]	selectivity against NaV1.2 (NaV1.2)	concentration from which the total area under the curve for the duration of the depolarizing pulse is increased (NaV1.1) [µM]	selectivity against NaV1.5 (NaV1.5)
FC1(F)CCN(c2nccc(-c3ccccn3)c2-c2nc3c([nH]2)CCOC3)C1 [Example 76, 2-[2-(3,3-difluoropyrrolidin-1-yl)-4-(2-pyridyl)-3-pyridyl]-1,4,6,7-tetrahydropyrano[3,4-d]imidazole]	10000 to 50000	+++ (+++ indicates a value from 5.0 up to 7.5 μM)			
Fc1cccc(-c2ccnc(N3CCC(F)(F)C3)c2-c2nc3c([nH]2)CCOC3)c1F [Example 77, 2-[4-(2,3-difluorophenyl)-2-(3,3-difluoropyrrolidin-1-yl)-3-pyridyl]-1,4,6,7-tetrahydropyrano[3,4-d]imidazole]	< 1000	++++ (++++ indicates a value greater than 7.5)			
Fc1ccccc1-c1ccnc(N2CCC(F)(F)C2)c1-c1nc2ccncc2[nH]1 [Example 78, 2-[2-(3,3-difluoropyrrolidin-1-yl)-4-(2-fluorophenyl)-3-pyridyl]-1H-imidazo[4,5-c]pyridine]	< 1000	++++ (++++ indicates a value greater than 7.5)			
Cc1cc2nc(-c3c(-c4ccccc4F)ccnc3N3CCC(F)(F)C3)[nH]c2cn1 [Example 79, 2-[2-(3,3-difluoropyrrolidin-1-yl)-4-(2-fluorophenyl)-3-pyridyl]-6-methyl-3H-imidazo[4,5-c]pyridine]	< 1000	++++ (++++ indicates a value greater than 7.5)			
Cn1cc2nc(-c3c(-c4ccccc4F)ccnc3N3CCC(F)(F)C3)[nH]c2n1 [Example 80, 5-[2-(3,3-difluoropyrrolidin-1-yl)-4-(2-fluorophenyl)-3-pyridyl]-2-methyl-4H-imidazo[4,5-c]pyrazole]	1000 to 10000	+++ (+++ indicates a value from 5.0 up to 7.5 μM)			
CCCCNS(=O)(=O)c1ccc(OC)c(-c2nnc3c4ccccc4c(C)nn23)c1 [Lu AE98134]			moderate selectivity	≥ 1	low selectivity
